Measurements from PMC7823860, “Flavonoid Glycosides with a Triazole Moiety for Marine Antifouling Applications: Synthesis and Biological Activity Evaluation” (Marine Drugs, 2020).
Where “and” joins values, the source holds several entries; their conditions need not be identical. Equal entries are not always repeated. Where two headings read alike, the source gives them in different places.

Columns and labels:
[1] = Mussel (Mytilus galloprovincialis) larvae anti-settlement bioassay; format: in vivo; conditions: in vivo, mussel plantigrade larvae, read-out: LC50 (median lethal dose)
Method: (§1) Mussel (Mytilus galloprovincialis) plantigrades were collected in juvenile aggregates during low neap tides at Memória beach, Matosinhos, Portugal (41°13′59″ N; 8°43′28″ W). In laboratory, mussel plantigrade larvae (0.5–2 mm) were isolated in a binocular magnifier (Olympus SZX2-ILLT, Tokyo, Japan) to a petri dish with filtered seawater, and those with functional foot and competent exploring behaviour were selected for the bioassays. The flavonoids were screened at 50 µM in 24-well microplates with 4 well replicates per condition and 5 larvae per well, for 15 h, in the darkness at 18 ± 1 °C, following Almeida et al. (2015). Test solutions were obtained by dilution of the compounds stock solutions (50 mM) in DMSO and prepared with filtered seawater. All bioassays included a negative control with DMSO and a positive control with CuSO4, a potent AF agent. After the exposure period, the anti-settlement activity was determined by the presence/absence of attached byssal threads produced by each individual larvae.
(§2) All compounds that caused more than 60% of settlement inhibition (≤40% of settlement) in the screening bioassay were considered active and selected for the determination of the semi-maximum response concentration that inhibited 50% of larval settlement (EC50), at compounds concentrations of 3.12, 6.25, 12.5, 25, 50, 100, 200 μM.
(§3) Datasets from anti-settlement, antibacterial and anti-microalgal bioassay, and determination of AChE and Tyr activities, were analysed by one-way analysis of variance (ANOVA) followed by a multi-comparisons Dunnett’s test against negative control (p < 0.05). For the AF bioassays, the half maximum response concentration (EC50) values for each compound, when applicable, were calculated using Probit regression analysis. Significance was considered at p < 0.01, and 95% lower and upper confidence limits (95%LCL; UCL). The software IBM SPSS Statistics 26 (Armonk, New York, USA) was used for statistical analysis.

[2] = system: Mytilus galloprovincialis plantigrade larvae; assay: as above; format: in vivo; conditions: 15 h, 15 h exposure, read-out: EC50 (minimum concentration that inhibited 50% of larval settlement)
Method: as §1, §2, §3

[3] = target: T1, Electrophorus electric AChE Type V-S (Electrophorus electricus, UniProt O42275); assay: In vitro acetylcholinesterase (AChE) activity (Ellman); format: biochemical; conditions: 25, 50 and 100 μM; versus negative control, p < 0.05
T1 construct: purchased SIGMA C2888
T1 sequence (O42275 24-633): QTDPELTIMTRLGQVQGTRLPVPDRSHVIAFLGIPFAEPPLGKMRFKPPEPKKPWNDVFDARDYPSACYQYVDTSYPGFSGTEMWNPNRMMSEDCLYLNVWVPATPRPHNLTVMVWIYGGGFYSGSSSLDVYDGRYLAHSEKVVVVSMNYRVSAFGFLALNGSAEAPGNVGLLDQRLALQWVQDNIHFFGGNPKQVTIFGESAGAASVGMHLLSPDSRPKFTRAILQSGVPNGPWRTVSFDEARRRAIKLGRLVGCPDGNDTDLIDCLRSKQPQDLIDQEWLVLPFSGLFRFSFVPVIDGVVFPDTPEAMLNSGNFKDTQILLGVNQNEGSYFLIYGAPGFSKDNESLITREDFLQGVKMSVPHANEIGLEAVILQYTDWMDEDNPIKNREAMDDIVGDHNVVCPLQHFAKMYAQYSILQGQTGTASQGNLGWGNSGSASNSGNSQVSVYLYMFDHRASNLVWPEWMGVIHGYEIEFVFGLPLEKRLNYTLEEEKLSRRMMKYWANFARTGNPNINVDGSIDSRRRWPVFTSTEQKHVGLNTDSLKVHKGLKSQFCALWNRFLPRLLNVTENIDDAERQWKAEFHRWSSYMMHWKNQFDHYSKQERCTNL
Method: (§4) The ability of the most promising compounds to inhibit AChE and Tyr was tested to assess their potential mode of action related with neurotransmission disruption or impairment of adhesive metabolism pathways, respectively.
AChE activity was evaluated using Electrophorus electric AChE Type V-S (SIGMA C2888, E.C. 3.1.1.7), according to Ellman et al. (1961) with some modifications. Reaction solution containing 1 M phosphate buffer pH 7.2, 10 mM dithiobisnitrobenzoate (DTNB) (acid dithiobisnitrobenzoate and sodium hydrogen carbonate in phosphate buffer) and 0.075 M […] was added to pure AChE enzyme (0.25 U/mL) and each test compound (final concentration of 25, 50 and 100 μM, 1% DMSO) in quadruplicate. All tests included a positive control with eserine (200 μM, water) and a negative control with 1% DMSO in water. The optical density was measured at 412 nm in a microplate reader (Biotek Synergy HT, Winooski, Vermont, USA) during 5 min at 25 °C.

Artemia salina nauplii [4] = assay: Artemia salina nauplii lethality (ecotoxicity) bioassay; format: in vivo; conditions: 25 and 50 μM, 48 h of exposure
Method: The brine shrimp (Artemia salina) nauplii lethality test was used to determine the toxicity of promising AF compounds to non-target organisms. Artemia salina eggs were allowed to hatch in seawater for 48 h at 25 °C. Bioassays were performed in 96-wells microplates with 15–20 nauplii per well and 200 μL of the compounds test solution. Compounds were tested at final concentrations of 25 and 50 μM (filtered seawater with 1% DMSO). All tests included K2Cr2O7 (13.6 μM) as positive control and DMSO (1%) as negative control. Bioassays were run in the dark at 25 °C, and the percentage of mortality was determined after 48 h of exposure.

[5] = system: Roseobacter litoralis CECT 5395; assay: Biofilm-forming marine bacteria growth inhibition; format: cell-based; conditions: 15 µM, 24 h, Dunnett test p < 0.05
Method: For anti-bacterial screening, five strains of marine biofilm-forming bacteria from the Spanish Type Culture Collection (CECT): Cobetia marina CECT 4278, Vibrio harveyi CECT 525, Halomonas aquamarina CECT 5000, Pseudoalteromonas atlantica CECT 570, and Roseobacter litoralis CECT 5395 were used. Bacteria were inoculated and incubated for 24 h at 26 °C in marine broth (Difco) at an initial density of 0.1 (OD600) in 96 well flat-bottom microtiter plates and exposed to the test compounds at 15 μM. Test solutions were obtained by dilution of the compounds stock solutions (50 mM) in DMSO. Bacterial growth inhibition in the presence of the compounds was determined in quadruplicate at 600 nm using a microplate reader (Biotek Synergy HT, Vermont, USA). Negative and positive controls used were a solution of marine broth with DMSO, and a solution of marine broth with penicillin–streptomycin–neomycin, respectively. […]
as §3, with “Significance was considered at p < 0.01, and 95% lower and upper confidence limits (95%LCL; UCL). The software IBM SPSS Statistics 26 (Armonk, New York, USA) was used for statistical analysis.” left out

Artemia salina nauplii [6] = system: Artemia salina nauplii; design: method as in PMID 29936172; conditions: same concentrations (25 and 50 μM) and conditions; cited from earlier work
Navicula sp. = assay: Biofilm-forming marine diatom growth inhibition; format: cell-based; conditions: 10 days
Method: The anti-microalgal activity of the most promising compounds was also evaluated against a benthic marine diatom, Navicula sp., purchased from the (Telde, Gran Canaria) Spanish Collection of Algae (BEA). Diatom cells were inoculated in f/2 medium (Sigma) at an initial concentration of 2–4 × 10^6 cells mL^−1 and grown in 96-well flat-bottom microtiter plates for 10 days at 20 °C. Navicula growth inhibition in the presence of each compound at 15 μM was determined in quadruplicate and quantified based on the difference in cell densities among the treatments, and cells were counted using a Neubauer counting chamber. A positive control with cycloheximide (3.55 μM) and a negative control with f/2 medium 0.1% DMSO were included.
as §3

Agaricus bisporus Tyr = assay: In vitro tyrosinase (Tyr) inhibition assay (L-Dopa to dopachrome); format: biochemical
Method: as §4
Tyr inhibition assay was performed using Agaricus bisporus Tyr (EC1.14.18.1) according to Adhikari et al. (2008) with some modifications. The enzymatic reaction follows the catalytic conversion of L-Dopa to dopaquinone and the formation of dopachrome by measuring the absorbance at 475 nm. Briefly, Tyr (25 U/mL) was added to 50 mM phosphate buffer pH 6.5 and the tested compounds at 25, 50 and 100 μM (final concentrations, 1% DMSO). The enzymatic activity was triggered by the addition of L-dopa (25 mM). Kojic acid (1.4 mM, water) was included as positive control and 1% DMSO in water as negative control.

In the case of COc1cc(-c2cc(=O)c3c(O)cc(OCc4cn(CCO[C@@H]5O[C@H](COC(C)=O)[C@@H](OC(C)=O)[C@H](OC(C)=O)[C@H]5OC(C)=O)nn4)cc3o2)cc(OC)c1OC [4b, (2R,3R,4S,5R,6R)-2-(acetoxymethyl)-6-(2-(4-(((5-hydroxy-4-oxo-2-(3,4,5-trimethoxyphenyl)-4H-chromen-7-yl)oxy)methyl)-1H-1,2,3-triazol-1-yl)ethoxy)tetrahydro-2H-pyran-3,4,5-triyl triacetate], the LC50 at 15 h [1] is reported as > 200 µM, the EC50 ([2]; 95% CI in cell) is reported as 48.2 µM and the EC50 [2] is reported as 38.6 µg/mL.

In the case of COc1cc(/C=C/C(=O)c2ccc(O)cc2O)cc(OC)c1OC [11b], the LC50 at 15 h [1] is reported as > 200 µM, the EC50 ([2]; 95% CI in cell) is reported as 9.64 µM and the AChE activity [3] is reported as “significantly induced”. For the same compound, the “mortality of Artemia salina nauplii” value (Artemia salina nauplii [4]) was “less than 10%”.

Work on COc1cc(-c2cc(=O)c3c(O)cc(OCc4cn([C@@H]5O[C@H](COC(C)=O)[C@@H](OC(C)=O)[C@H](OC(C)=O)[C@H]5OC(C)=O)nn4)cc3o2)cc(OC)c1OC yielded a melting point of 169 to 171 °C.

With C#CCOc1ccc(C(=O)/C=C/c2ccc(OC)c(OC)c2)c(O)c1 [6a] the LC50 at 15 h [1] was > 200 µM, the EC50 ([2]; 95% CI in cell) was 84.5 µM and the EC50 [2] was 28.6 µg/mL. The “bacterial growth inhibition screening” value [5] was “significant inhibitory activity”.

In the case of N#Cc1c(-c2ccc(Cl)cc2)[nH]c(C(F)(F)F)c1Br [ECONEA], the “lethality to Artemia salina” value (Artemia salina nauplii [6]) is listed as 100%.

In the case of C#CCOc1ccc(C(=O)/C=C/c2cc(OC)c(OC)c(OC)c2)c(O)c1 [6b], the LC50 at 15 h [1] is reported as > 200 µM, the EC50 ([2]; 95% CI in cell) is reported as 85.6 µM and the EC50 [2] is reported as 31.5 µg/mL. The “bacterial growth inhibition screening” value [5] was “significant inhibitory activity”.

In the case of COc1cc(/C=C/C(=O)c2ccc(OCc3cn(CCO[C@H]4O[C@H](COC(C)=O)[C@@H](OC(C)=O)[C@H](OC(C)=O)[C@@H]4OC(C)=O)nn3)cc2O)cc(OC)c1OC [8b, (2R,3R,4S,5S,6S)-2-(acetoxymethyl)-6-(2-(4-((3-hydroxy-4-((E)-3-(3,4,5-trimethoxyphenyl)acryloyl)phenoxy)methyl)-1H-1,2,3-triazol-1-yl)ethoxy)tetrahydro-2H-pyran-3,4,5-triyl triacetate], the LC50 at 15 h [1] is reported as > 200 µM, the EC50 ([2]; 95% CI in cell) is reported as 53.9 µM and the EC50 [2] is reported as 42.4 µg/mL.

In the case of COc1ccc(-c2cc(=O)c3c(O)cc(OCc4cn(CCO[C@@H]5O[C@H](COC(C)=O)[C@@H](OC(C)=O)[C@H](OC(C)=O)[C@H]5OC(C)=O)nn4)cc3o2)cc1OC [4a, (2R,3R,4S,5R,6R)-2-(acetoxymethyl)-6-(2-(4-(((2-(3,4-dimethoxyphenyl)-5-hydroxy-4-oxo-4H-chromen-7-yl)oxy)methyl)-1H-1,2,3-triazol-1-yl)ethoxy)tetrahydro-2H-pyran-3,4,5-triyl triacetate], the LC50 at 15 h [1] is reported as > 200 µM, the EC50 ([2]; 95% CI in cell) is reported as 42.6 µM and the EC50 [2] is reported as 32.8 µg/mL.

Compound COCOc1ccc(C(=O)/C=C/c2cc(OC)c(OC)c(OC)c2)c(O)c1 has a melting point of 132 to 134 °C.

In the case of COc1cc(/C=C/C(=O)c2ccc(OCc3cn([C@@H]4O[C@H](COC(C)=O)[C@@H](OC(C)=O)[C@H](OC(C)=O)[C@H]4OC(C)=O)nn3)cc2O)cc(OC)c1OC [7b, (2R,3R,4S,5R,6R)-2-(acetoxymethyl)-6-(4-((3-hydroxy-4-((E)-3-(3,4,5-trimethoxyphenyl)acryloyl)phenoxy)methyl)-1H-1,2,3-triazol-1-yl)tetrahydro-2H-pyran-3,4,5-triyl triacetate], the LC50 at 15 h [1] is reported as > 200 µM, the EC50 ([2]; 95% CI in cell) is reported as 3.28 µM and the “diatom growth inhibition screening” value (Navicula sp.; 15 μM, Dunnett test p < 0.05) is reported as “significant inhibitory activity”. The EC50 (Navicula sp.; 240 h) was 41.8 µM and 30.9 µg/mL, the AChE activity [3] was “significantly induced” and the “mortality of Artemia salina nauplii” value (Artemia salina nauplii [4]) was “less than 10%”.

In the case of COc1ccc(/C=C/C(=O)c2ccc(O)cc2O)cc1OC [11a], the LC50 at 15 h [1] is reported as > 200 µM, the EC50 ([2]; 95% CI in cell) is reported as 18.1 µM and the “mortality of Artemia salina nauplii” value (Artemia salina nauplii [4]) is reported as “less than 10%”.

In the case of COc1ccc(/C=C/C(=O)c2ccc(OCc3cn(CCO[C@@H]4O[C@H](COC(C)=O)[C@@H](OC(C)=O)[C@H](OC(C)=O)[C@H]4OC(C)=O)nn3)cc2O)cc1OC [8a, (2R,3R,4S,5R,6R)-2-(acetoxymethyl)-6-(2-(4-((4-((E)-3-(3,4-dimethoxyphenyl)acryloyl)-3-hydroxyphenoxy)methyl)-1H-1,2,3-triazol-1-yl)ethoxy)tetrahydro-2H-pyran-3,4,5-triyl triacetate], the LC50 at 15 h [1] is reported as > 200 µM, the EC50 ([2]; 95% CI in cell) is reported as 35.8 µM and the EC50 [2] is reported as 27.1 µg/mL.

In the case of COc1cc(-c2cc(=O)c3c(O)cc(O)cc3o2)cc(OC)c1OC [1b], the LC50 at 15 h [1] is reported as > 200 µM, the EC50 ([2]; 95% CI in cell) is reported as 8.34 µM and the “inhibition of Tyr” value (Agaricus bisporus Tyr; 100 µM) is reported as 23.5%. The Tyr activity (Agaricus bisporus Tyr; all the concentrations tested (25, 50 and 100 μM), versus negative control) was “significantly decrease Tyr activity” and the “mortality of Artemia salina nauplii” value (Artemia salina nauplii [4]) was “less than 10%”.

For COc1ccc(-c2cc(=O)c3c(O)cc(OCc4cn([C@@H]5O[C@H](COC(C)=O)[C@@H](OC(C)=O)[C@H](OC(C)=O)[C@H]5OC(C)=O)nn4)cc3o2)cc1OC, the melting point was 143 to 145 °C.
